Here are results for one compound from article PMC3262104 (Journal of the American Chemical Society, 2011).

The structures appear in SMILES notation.

Series [1] has as its target T1, P-gp (Homo sapiens, UniProt P08183). The series can be described thus: Inhibition of P-gp-mediated efflux of calcein-AM in 12D7-MDR cells. The class given is cell-based.
For series [2], the target named is T1, P-gp. The series can be described thus: [125I]IAAP photo-crosslinking competition, crude Sf9 membranes expressing P-gp. It counts as binding.
In a further series the test system is HIV-1LAI. The series can be described thus: Inhibition of HIV-1 replication, HIV p24 ELISA in infected 12D7 cells. It counts as cell-based. The settings on record: Human immunodeficiency virus 1, read-out: IC50 inhibition of HIV-1 replication.
For series [3], the system named is P-gp. Particulars: brain; cited from earlier work.

T1 sequence (P08183 whole entry): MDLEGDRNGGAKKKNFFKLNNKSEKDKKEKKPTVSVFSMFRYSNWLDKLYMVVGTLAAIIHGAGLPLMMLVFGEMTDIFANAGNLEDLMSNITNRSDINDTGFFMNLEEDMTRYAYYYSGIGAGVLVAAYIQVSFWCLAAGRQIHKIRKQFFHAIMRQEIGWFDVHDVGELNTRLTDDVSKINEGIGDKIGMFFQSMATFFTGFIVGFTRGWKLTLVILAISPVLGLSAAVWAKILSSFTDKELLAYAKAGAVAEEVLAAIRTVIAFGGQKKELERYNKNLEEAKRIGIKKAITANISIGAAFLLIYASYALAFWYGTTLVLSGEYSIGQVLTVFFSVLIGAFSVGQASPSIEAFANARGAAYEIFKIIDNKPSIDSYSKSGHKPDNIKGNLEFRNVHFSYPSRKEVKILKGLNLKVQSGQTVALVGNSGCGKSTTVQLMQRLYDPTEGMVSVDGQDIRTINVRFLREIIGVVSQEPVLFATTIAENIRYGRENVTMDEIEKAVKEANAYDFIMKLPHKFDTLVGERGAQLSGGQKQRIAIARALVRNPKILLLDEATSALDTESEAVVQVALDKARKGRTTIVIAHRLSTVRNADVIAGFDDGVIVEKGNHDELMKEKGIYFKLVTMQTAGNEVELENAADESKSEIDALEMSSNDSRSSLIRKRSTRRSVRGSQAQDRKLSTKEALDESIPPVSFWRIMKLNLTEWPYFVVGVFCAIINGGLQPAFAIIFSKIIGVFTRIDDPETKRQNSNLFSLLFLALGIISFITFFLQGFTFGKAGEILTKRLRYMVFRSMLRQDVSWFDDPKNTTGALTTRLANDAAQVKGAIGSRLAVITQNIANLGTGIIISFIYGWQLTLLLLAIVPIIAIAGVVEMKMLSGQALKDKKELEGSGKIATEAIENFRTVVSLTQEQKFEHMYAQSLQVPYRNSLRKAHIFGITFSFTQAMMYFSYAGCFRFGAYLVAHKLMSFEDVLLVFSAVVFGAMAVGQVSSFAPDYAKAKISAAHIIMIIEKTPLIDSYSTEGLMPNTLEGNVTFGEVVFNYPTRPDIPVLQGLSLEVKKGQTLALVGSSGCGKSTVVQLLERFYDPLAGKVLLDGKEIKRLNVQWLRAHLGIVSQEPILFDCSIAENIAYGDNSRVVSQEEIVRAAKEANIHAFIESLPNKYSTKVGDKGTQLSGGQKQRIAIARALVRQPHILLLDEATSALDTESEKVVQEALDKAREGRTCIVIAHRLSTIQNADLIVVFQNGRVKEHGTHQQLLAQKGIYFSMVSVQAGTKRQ

In the case of `Nc1nc(NC2CC2)c2ncn([C@H]3C=C[C@@H](CO)C3)c2n1` [abacavir], the results for the IC50 on P-gp [1], at P-gp [2] and in the series on HIV-1LAI were more than 500 µM, more than 100 µM and approximately 0.6 µM, respectively. The “Inhibition of P-gp mediated efflux of fluorescent substrates” value at P-gp [1] (12D7-MDR cells, at a concentration of 500 µM) is listed as “only minimally effective”. For the same compound, in the series on P-gp [3], the “Increased levels in the brains of dosed P-gp-null mice versus dosed wild-type mice” value is on record as 20 fold.
